In the NIST ThermoML archive (doi:10.1021/je500380x):
Numbers after ± are expanded uncertainties.

How the values were obtained:
[1] = 298.15 K, 101.33 kPa, Liquid; for viscosity: Falling or rolling sphere viscometry; for mass density: Vibrating tube method
[2] = mn = molality of the nth substance listed, in mol/kg; settings: 100 kPa, Liquid, m2 = 0; for viscosity: Falling or rolling sphere viscometry; for mass density: Vibrating tube method

Row | Structure (SMILES) | viscosity [1] [mPa·s] | mass density [1] [kg/m3] | viscosity ([2]; 293.15 K) [mPa·s] | mass density ([2]; 293.15 K) [kg/m3] | viscosity ([2]; 298.15 K) [mPa·s] | mass density ([2]; 298.15 K) [kg/m3] | viscosity ([2]; 303.15 K) [mPa·s] | mass density ([2]; 303.15 K) [kg/m3] | viscosity ([2]; 308.15 K) [mPa·s] | mass density ([2]; 308.15 K) [kg/m3] | viscosity ([2]; 313.15 K) [mPa·s] | mass density ([2]; 313.15 K) [kg/m3] | viscosity ([2]; 318.15 K) [mPa·s] | mass density ([2]; 318.15 K) [kg/m3] | viscosity ([2]; 323.15 K) [mPa·s] | mass density ([2]; 323.15 K) [kg/m3]
1 | CCO [ethanol] | 1.083 ± 0.013 | 785.339 ± 0.13 |  |  |  |  |  |  |  |  |  |  |  |  |  | 
2 | CCO [ethanol] + CCC(=O)OCCN1CCNCC1 |  |  | 1.189 ± 0.015 | 789.64 ± 0.15 | 1.083 ± 0.013 | 785.34 ± 0.15 | 0.989 ± 0.012 | 781.03 ± 0.15 | 0.905 ± 0.011 | 776.68 ± 0.16 | 0.831 ± 0.01 | 772.29 ± 0.16 | 0.765 ± 0.009 | 767.86 ± 0.16 | 0.706 ± 0.009 | 763.38 ± 0.16
3 | CO [methanol] | 0.559 ± 0.011 | 786.671 ± 0.13 |  |  |  |  |  |  |  |  |  |  |  |  |  | 
4 | CO [methanol] + CCC(=O)OCCN1CCNCC1 |  |  | 0.595 ± 0.007 | 791.38 ± 0.15 | 0.559 ± 0.007 | 786.67 ± 0.15 | 0.527 ± 0.007 | 781.95 ± 0.15 | 0.498 ± 0.006 | 777.2 ± 0.16 | 0.471 ± 0.006 | 772.43 ± 0.16 | 0.448 ± 0.006 | 767.62 ± 0.16 | 0.428 ± 0.005 | 762.77 ± 0.16
5 | O [water] | 0.887 ± 0.012 |  |  |  |  |  |  |  |  |  |  |  |  |  |  | 
6 | O [water] + CCC(=O)OCCN1CCNCC1 |  |  | 0.994 ± 0.012 |  | 0.887 ± 0.011 |  | 0.799 ± 0.01 |  | 0.726 ± 0.009 | 994.07 ± 0.11 | 0.665 ± 0.008 |  | 0.614 ± 0.008 |  | 0.567 ± 0.007 | 
